In general, melting point refers to the temperature of the solid-liquid transition.

In turn, `CC(C)n1c(=O)n(C)c(=O)c2c(S(=O)CCCO)n(Cc3cccc4ccccc34)cc21` (centres undefined) had a melting point of 184 to 185 °C.
`CC(=O)c1ccc(NC(=O)NN2CC=CCC2)cc1` registered a melting point of 142 to 143 °C.
Regarding `CC(Oc1ccc(C(C)(C)C)cc1C(C)(C)C)C(=O)O` (centres undefined), the melting point fell in the range of 106 to 111 °C.
To `CCCCC(=O)Nc1ccc2c(c1)C(=O)OC2CCCC` (centres undefined) belongs 137 to 139 °C; to `O=C1CCc2cc3c(cc21)CCC3`, 72.4 to 74.8 °C; to `Cc1c(C(=O)c2ccccc2)[nH]c(CC(=O)O)c1C(=O)O`, 250 to 253 °C.
With `O=C(NC1N=C(c2ccccc2F)c2ccccc2N(CC(=O)N2CC3CCC(CC3)C2)C1=O)c1cccc(O)c1` (racemic), the melting point was over 250 °C.
The compound `CCCCCC(CC(=O)Nc1cc(CBr)ccc1C(C)(C)C)c1cccc2c1OCO2` (centres undefined) gave a melting point of 119 to 120 °C.
In turn, `CCOC(=O)c1nc(C)cc(C#N)c1C` came in with a melting point of 55.5 °C.
Take `CN(C)CCNC(=O)N1CCN(c2ccccc2)CC1`: the melting point fell in the range of 88 to 90 °C.
`c1ccc([C@H]2CC[C@@H](Oc3ncnc4c3CCCC4)CC2)cc1` gave a melting point of 109 °C.
Regarding `O=C(O)c1ccccc1C(=O)c1cccc(NC(=O)c2ccn3c2CSC3c2cccnc2)c1` (centres undefined), the melting point worked out at 315 °C.
Compound `COc1cc(CN2CCc3c(sc(N)c3C(=O)c3ccc4ccccc4c3)C2)cc(OC)c1OC` had a melting point of 127 to 129 °C.
`COCc1[nH]c(=O)[nH]c1C(=O)c1ccc(OC)cc1` came in with a melting point of 211 to 212 °C.
In the case of `CC(=O)c1ccc(NS(C)(=O)=O)c(S(=O)c2ccc(F)cc2F)c1` (centres undefined), the melting point was in the range of 151 to 152 °C.
The compound `Nc1c(Cl)cc(Nc2ncnc3cnc(N[C@H]4CC[C@H](C(=O)N5CCCC5)CC4)nc23)cc1Cl` displayed a melting point of 228 to 230 °C.
For the compound `CCCCN1CCCC1CNC(=O)c1cc(S(N)(=O)=O)cc2c1OC(C)C2` (centres undefined), the melting point stood at 170 °C.
In turn, `C[C@@H]1CCN(C(=O)CC#N)C[C@@H]1N(C)c1ncnc2sccc12` displayed a melting point of 74.3 °C.
In the case of `O=c1[nH]c2ccc(C(F)(F)F)cc2c(-c2cc(Cl)ccc2O)c1CCO`, the melting point fell in the range of 253 to 255 °C.
`c1cc(N2CCNCC2)c2nccnc2c1` showed a melting point of 106 to 108 °C.
Compound `Cc1ccnc2c1nc(-c1cccnc1N)n2-c1ccc(CC(=O)Nc2cccc(F)c2)cc1` showed a melting point of 241 to 243 °C.
With `Cc1ccc(S(=O)(=O)OC2=CC3COC(O3)C2=O)cc1` (centres undefined) the figure was 81 to 86 °C; with `Cc1nc(OCC(F)(F)F)c([N+](=O)[O-])c(N2CCC(c3ccccc3)CC2)n1`, 114 to 117 °C; with `CC(C)(C)[C@H]1CC[C@@H](Nc2nnc(Cc3ccncc3)c3ccccc23)CC1`, 64 to 65 °C.
In turn, `Cc1cc(F)c(Nc2ncnc3cc(NC(=O)CCN4CCOCC4)ccc23)cc1O` registered a melting point of 228 to 233 °C.
As to `CC1(C)CCCN(C2c3cc4nonc4cc3OC(C)(C)C2O)C1=O` (centres undefined), the melting point lay within 114 to 115 °C.
In turn, `CCOC(=O)c1cc2sc(C)c(N(C)C(=O)OCc3ccccc3)c2[nH]1` showed a melting point of 122 °C.
Compound `Nc1ccn([C@@H]2C[C@H](CO)[C@@H](O)[C@H]2O)c(=O)n1` yielded a melting point of 214 °C.
As for `CNC(=O)N(N)CC(C)O` (centres undefined), the melting point was in the range of 99 to 101 °C.
For `CCOC(=O)C=Cc1ccc(OCC)c([N+](=O)[O-])c1`, the melting point lay in the range of 90 to 92 °C.
To `Cc1c(C(=O)Nc2ccc(N3CCC(N4CCOCC4)CC3)c(C#N)c2)cnn1-c1ccccc1` belongs 223 °C.
In turn, `CC(=O)c1c(C)cc(=O)[nH]c1C` gave a melting point of 160 to 162 °C.
As to `COP(=O)(OC)[C@H](C)NC(=O)[C@H](C)NC(=O)[C@H](C)NC(=O)OCc1ccccc1`, the melting point lay within 149 to 151 °C.
To `CC(=O)NS(=O)(=O)c1cncc([N+](=O)[O-])c1` belongs 176 to 178 °C; to `CCCSc1nccn2c(=O)c(C(=O)OCC)cnc12`, 112 °C.
In turn, `O=C1N(Cc2ccc(-c3noc(C(F)(F)F)n3)cc2)c2ccccc2C12COc1cc3c(cc12)CCO3` (centres undefined) gave a melting point of 178 to 179 °C.
With `COc1ccc2ccc(-n3nc(OCCN4CCOCC4)cc3C)cc2c1`, the melting point is 143 to 147 °C.
As for `CC(=O)N(C(=O)N(C)C)c1nnc(C(F)(F)F)s1`, the melting point was 61 to 63 °C.
`CCN(CC)C(=O)c1c(I)ccc(F)c1[Si](C)(C)C` returned a melting point of 58.5 to 64 °C.
For `COC(=O)c1ccc(NC(C)=O)cc1O`, the melting point is 148 to 151 °C.
To `COC1=CCC(OC)(OC)C=C1CCc1ccc(OC)cc1C` belongs 71 to 72 °C.
With `Cc1c(C(=O)Nc2ccc(N3CCN(C4CCOCC4)CC3)c(C#N)c2)cnn1-c1ccc(Cl)c(Cl)c1`, the melting point stood at 242 °C.
Take `O=C(O)CCOc1cccc(CNC(=O)C2Cc3ccccc3N2S(=O)(=O)c2ccc(-c3cccc(C(F)(F)F)c3)cc2)c1` (centres undefined): the melting point stood at 70 °C.
To `COc1ccc(/C=C/S(=O)(=O)Nc2ccc(F)cc2)cc1` belongs 115 to 117 °C; to `CCCCN1C[C@H](CO)[C@@H](O)[C@H](O)C1`, 94 to 95 °C; to `N[C@@H]1CCc2c(ccc(OCc3ccccc3)c2CO)[C@H]1O` (relative stereo), 148 to 150 °C.
`CCOCc1nc2c(N)nc(C)c(C)c2n1NC(C)C` yielded a melting point of 110 to 120 °C.
To `CC(C)n1c(=O)n(CC#N)c2cc(-c3ncc(C(F)(F)F)cc3Cl)ccc21` belongs 158 to 159 °C; to `CC(C)n1nc(-c2c(-c3ccccc3)nn3ccc(C(=O)NCCOc4ccccc4)cc23)ccc1=O`, 156 to 157 °C; to `O=C(O)c1ccc(CCCCc2ccccc2Oc2ccccc2)cc1`, 120 °C.
`CCCNc1nc(N)nc(-c2ccccc2)c1-c1ccc(=O)n(C(C)C)n1` gave a melting point of 209 to 212 °C.
For the compound `O=C1c2ccccc2C(=O)N1CCNCCCO`, the melting point fell in the range of 94 to 95 °C.
`O=C(O)CCC1(CCC(=O)O)CCC(=O)N1` came in with a melting point of 162 to 164 °C.
On to `C=C1c2ccccc2C(n2cncc2C(=O)OC)C1(C)C` (centres undefined), for which the melting point lay in the range of 125 to 126 °C.
To `COc1ccc(C(=O)N2c3ccccc3C(N3CCSc4ccccc43)CC2C)cc1OC` (centres undefined) belongs 113 to 114 °C.
As for `CN1C(=O)CC[C@]2(C)c3ccc(-c4ccc(O)c(F)c4)cc3CC[C@@H]12`, the melting point is over 240 °C.
Compound `CC(CSC(=O)c1ccccc1)C(=O)N1c2ccccc2CC1C(=O)O` (centres undefined) displayed a melting point of 116 to 117 °C.
`OC1CSC(Oc2ccc(-n3ccnc3)cc2)C(O)C1O` (centres undefined) had a melting point of 180 °C.
`CCCCC(=O)Nc1cccc2c1C(=O)N(C1CCC(=O)NC1=O)C2=O` (centres undefined): the melting point was in the range of 178 to 179 °C.
To `CCC(=O)NC(=O)C(CC)(OC(=O)CC)C(=O)NC(=O)CC` belongs 90 °C.
On to `Cc1ccc(C2CC(CN(C)C)Oc3ccccc32)cc1` (centres undefined), for which the melting point lay in the range of 114 to 116 °C.
On to `CCOC(=O)C(Br)=NNc1ccccc1`, for which the melting point is 82 to 83 °C.
In turn, `CC(CO)Cn1cnc2c(N)nc3ccccc3c21` (centres undefined) displayed a melting point of 258 to 261 °C.
As for `CC(Oc1cc(C(F)(F)F)cc(C(F)(F)F)c1)C(=O)O` (centres undefined), the melting point was in the range of 51 to 53 °C.
On to `O=C(CCl)N(CCc1[nH]c2ccccc2c1-c1ccccc1)CC1CC1`, for which the melting point lay within 104 to 106 °C.
In turn, `Cc1cc(C)c(Oc2ccc(C=NNC(N)=O)cc2)c(C)c1` returned a melting point of 189 to 190 °C.
`N#Cc1ccc2[nH]cc([C@H]3CC[C@@H](N4CC(Oc5cccc(F)c5)C4)CC3)c2c1` returned a melting point of 187 to 190 °C.
In the case of `ON=CN1CCCC1C1=Nc2ccc(Cl)cc2C(c2ccccc2F)=NC1` (centres undefined), the melting point was in the range of 175 to 178 °C.
In turn, `O=C(O)c1ccc(C=Cc2cc(=O)c3cc(Br)ccc3o2)cc1` gave a melting point of 359 to 362 °C.
`O=C(Nc1cccc2[nH]ccc12)c1cc(O)cc(Cl)c1`: the melting point worked out at 248 °C.
As to `Clc1cnc(SCI)nc1`, the melting point turned out to be 67 °C.
As for `COC(=O)Cc1ccc2oc(=S)[nH]c2c1`, the melting point is 120 to 122 °C.
Compound `CC(Cc1cc(NC(=O)NCc2ccccc2)cc2ccoc12)NC(=O)OC(C)(C)C` (centres undefined) showed a melting point of 167 to 168 °C.
In turn, `c1ccc(COc2ccc(CCCCn3ccnc3)cc2)cc1` registered a melting point of 97 to 98 °C.
With `Fc1ccccc1N1CC2(CCNCC2)c2ccc(Cl)cc21` the figure was 174 to 176 °C; with `CCCCc1c(Cl)nc(N)nc1-c1cc2ccccc2o1`, 195 to 196 °C.
Compound `CC(C)(C)OC(=O)NCc1ccc(C(=O)NNC(=O)OCc2ccccc2)cc1` displayed a melting point of 160 to 162 °C.
`O=c1[nH]c2ccccc2n1CCN1CCC(C(c2ccc(F)cc2)c2ccc(F)cc2)CC1` came in with a melting point of 104 to 106 °C.
With `O=C1CCCN1CCCNCc1ccc(-c2cc3ncnc(Nc4ccc5[nH]ccc5c4)c3s2)cc1`, the melting point lay in the range of 139 to 146 °C.
With `CCO[C@H](C(=O)N1C(=O)OC[C@@H]1Cc1ccccc1)[C@H](O)c1ccc2oc(Cc3nc(-c4ccccc4)oc3C)cc2c1` the figure was 66 °C; with `CCCCCCCCCCOc1ccc(-c2c(C)[nH]c(=O)n2C2CCCCC2)cc1`, 137 to 138 °C.
In turn, `Cc1ccccc1CN1CCC(c2cc(-c3ccc(Cl)cc3)[nH]n2)CC1` yielded a melting point of 142 to 143 °C.
Compound `CCCCCCCCCCCCCCCCCC(=O)NCCOC(=O)C1=CC(C(C)(C)C)C(O)(C(C)(C)C)C=C1` (centres undefined) gave a melting point of 56 to 58 °C.
Compound `CC(C)=CCN1Cc2cc(Cl)cc3[nH]c(=S)n(c23)C[C@@H]1C` came in with a melting point of 186 °C.
Turning to `CCCCCN(CCC12CC3CC(CC(C3)C1)C2)C(=O)NCc1ccccn1`, the melting point was 87.5 to 92 °C.
As for `O=S(=O)(CC(F)(F)F)c1nc2cc(Cl)c(Cl)cc2[nH]1`, the melting point was 190 to 192 °C.
To `COC(=O)CCNC(=O)c1ccc2c(c1)nc(-c1ccc(C(=N)N)cc1)n2CCCCc1ccccc1` belongs 184 to 186 °C.
For the compound `CC(=O)Cc1ccc(-c2ccc(Cl)cc2)cc1`, the melting point was 79 to 81 °C.
Compound `CCOC(=O)c1c(CBr)n(C)c2cc(Br)c(OC(C)=O)cc12` showed a melting point of 179 to 180 °C.

The record behind these values is a melting point compilation (Tetko et al.; mined from patent text by program, amines drawn as free bases though some values may be those of a salt).
